The text below walks through data of publication PMC10728186, “Acid phosphatase-like proteins, a biogenic amine and leukotriene-binding salivary protein family from the flea Xenopsylla cheopis” (Communications Biology, 2023).

Like-named read-outs stand apart in the source and are kept apart here.

Common to all, as to assay type: binding
Experiment [1] has as its target T1, XcAP-1 (Xenopsylla cheopis, UniProt A2IA89).
T1 construct: mature ORF (no signal peptide) in VR1020 vector, secreted from HEK293 / Expi293; monomer; residues Asp7-Asn361 (mature count) seen in crystal; natural Gly and Ser in place of the two catalytic His
T1 sequence (A2IA89 17-374): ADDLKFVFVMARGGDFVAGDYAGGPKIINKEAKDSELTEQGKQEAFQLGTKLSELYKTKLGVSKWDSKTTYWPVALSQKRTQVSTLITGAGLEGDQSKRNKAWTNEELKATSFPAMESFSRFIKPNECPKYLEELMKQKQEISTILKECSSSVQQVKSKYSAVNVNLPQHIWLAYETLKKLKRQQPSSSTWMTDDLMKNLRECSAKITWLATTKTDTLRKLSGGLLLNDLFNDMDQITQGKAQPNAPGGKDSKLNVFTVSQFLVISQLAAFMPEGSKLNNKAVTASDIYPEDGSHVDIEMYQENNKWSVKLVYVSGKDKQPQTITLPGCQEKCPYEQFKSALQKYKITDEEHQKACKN
Briefly: isothermal titration calorimetry. From the text:
isothermal titration calorimetry on XcAP-1
(In general: Isothermal titration calorimetry measures the heat released or taken up as one component is titrated into another.)

Another experiment concerns the target T2, XcAP-3 (Xenopsylla cheopis, UniProt A2IA90).
T2 construct: mature ORF (no signal peptide) in pcDNA3.1(+), secreted from HEK293 / Expi293; natural Gly and Pro in place of the two catalytic His; Thr10, Ile229, Lys266 (mature count)
T2 sequence (A2IA90 20-380): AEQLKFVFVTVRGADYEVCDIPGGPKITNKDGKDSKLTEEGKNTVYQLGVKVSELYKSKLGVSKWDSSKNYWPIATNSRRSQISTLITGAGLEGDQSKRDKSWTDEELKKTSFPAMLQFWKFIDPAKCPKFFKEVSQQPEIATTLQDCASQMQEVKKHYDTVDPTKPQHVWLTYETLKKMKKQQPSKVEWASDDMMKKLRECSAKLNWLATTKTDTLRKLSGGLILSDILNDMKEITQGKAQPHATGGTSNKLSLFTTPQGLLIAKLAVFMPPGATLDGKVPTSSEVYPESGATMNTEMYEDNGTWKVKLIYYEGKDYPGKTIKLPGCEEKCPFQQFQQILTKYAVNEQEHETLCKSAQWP
Briefly: isothermal titration calorimetry. From the text: isothermal titration calorimetry on XcAP-3

In a further experiment the target is T3, XcAP-2 (Xenopsylla cheopis, UniProt A2IA93).
T3 construct: mature ORF (no signal peptide) in pcDNA3.1(+), secreted from HEK293 / Expi293; natural Gly and Pro in place of the two catalytic His; Thr10, Ile228, His265 (mature count)
T3 sequence (A2IA93 20-378): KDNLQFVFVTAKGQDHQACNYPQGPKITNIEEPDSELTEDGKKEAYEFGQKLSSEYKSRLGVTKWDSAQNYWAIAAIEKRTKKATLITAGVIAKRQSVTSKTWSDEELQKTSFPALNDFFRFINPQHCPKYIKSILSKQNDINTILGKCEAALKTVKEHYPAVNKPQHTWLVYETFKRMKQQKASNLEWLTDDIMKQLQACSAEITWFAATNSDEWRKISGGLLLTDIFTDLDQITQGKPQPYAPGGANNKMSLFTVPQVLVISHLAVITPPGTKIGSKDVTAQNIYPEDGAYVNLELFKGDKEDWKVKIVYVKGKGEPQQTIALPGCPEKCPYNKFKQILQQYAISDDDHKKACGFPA
The experiment is described as follows: isothermal titration calorimetry. The text has this: isothermal titration calorimetry on XcAP-2

Experiment [2] deals with T1, XcAP-1. The experiment is described as follows: isothermal titration calorimetry; crystal structure […] A.
Experiment [3] has as its target T1, XcAP-1. Briefly: crystal structure […] A. Conditions: co-purified from HEK293 culture, modelled from density; pocket near substituted catalytic residues; second site beside serotonin.

`CNC[C@H](O)c1ccc(O)c(O)c1` [Epinephrine]: on XcAP-1 [1] (read-out: XcAP-1), the Kd was 0.0177 µM.
Take `NCCc1c[nH]cn1` [Histamine]: the Kd was 0.0292 µM on XcAP-3 (read-out: K (M^-1) (converted)), 0.037 µM on XcAP-3 (read-out: XcAP-3), 0.0439 µM at XcAP-2 (read-out: K (M^-1) (converted)) and 0.0377 µM at XcAP-2 (read-out: XcAP-2).
For the molecule `CCCCC/C=C\C[C@@H](O)/C=C/C=C/C=C\[C@@H](O)CCCC(=O)O` [LTB4], on XcAP-2 (read-out: XcAP-2), the Kd was determined as 0.111 µM.
Turning to `CCCCC/C=C\C\C=C/C=C/C=C/[C@@H](SC[C@H](NC(=O)CC[C@H](N)C(=O)O)C(=O)NCC(=O)O)[C@@H](O)CCCC(=O)O` [LTC4], the Kd at XcAP-1 [1] (read-out: XcAP-1) was determined as 0.0374 µM; on XcAP-3 (read-out: XcAP-3) it was 0.0658 µM; on XcAP-2 (read-out: XcAP-2), 0.0787 µM.
For the molecule `CCCCC/C=C\C\C=C/C=C/C=C/[C@@H](SC[C@H](N)C(=O)NCC(=O)O)[C@@H](O)CCCC(=O)O` [LTD4], at XcAP-2 (read-out: XcAP-2), the Kd worked out at 0.153 µM.
On the same count and under the same terms, as for `CCCCC/C=C\C\C=C/C=C/C=C/[C@@H](SC[C@H](N)C(=O)O)[C@@H](O)CCCC(=O)O` [LTE4], the figure is 0.0602 µM.
As for `NC[C@H](O)c1ccc(O)c(O)c1` [Norepinephrine], on XcAP-1 [1] (read-out: XcAP-1), the Kd was found to be 0.0769 µM.
Turning to `NCCc1c[nH]c2ccc(O)cc12` [Serotonin], the figures for the Kd on XcAP-1 [2] and at XcAP-1 [1] (read-out: K (M^-1) (converted)) were 0.00372 µM and 0.00592 µM, respectively.
Consider `CCCCCC/C=C\CCCCCCCC(=O)O` [palmitoleic acid], for which, on XcAP-1 [3], the “crystal structure 1.75 A” value was “near the putative catalytic site of XcAP-1 was also observed, in which we modeled a palmitoleic acid”.
